Source: PubChem BioAssay AID1918937 (Molecular Pharmacology Branch, DTP, NCI, 2023)
pIC50: −log10 of the molar value. “And” between values parts separate entries of the source, which are not always exact repeats. Equal values may be shown once. Blank lines part the entries; values can stand above or below the molecule they belong to.

System: 521955-158-R2-J5-PDC complex spheroid viability
Experiment: Anticancer human tumor 521955-158-R2-J5-PDC patient-derived pancreatic carcinoma cell line growth inhibition
Details: for viability, T/C: stronger effect = lower value
Summary of the method: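 Multicellular complex spheroids of tumor cells with human endothelial cells (HUVEC) and mesenchymal stem cells; the LSD1 inhibitor iadademstat was combined with standard-of-care or investigational agents. Top concentration at or near clinical Cmax, half-log dilutions; final DMSO ≤0.25%.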

[1] = curve of first compound, second compound 0.1 µM
[2] = curve of first compound, second compound 0.316 µM
[3] = curve of first compound, second compound 1 µM
[4] = curve of first compound, second compound 3.16 µM
[5] = curve of first compound, second compound 10 µM
[6] = second compound 0.1 µM, first compound 0.00949 µM
[7] = second compound 0.1 µM, first compound 0.03 µM
[8] = second compound 0.1 µM, first compound 0.0949 µM
[9] = second compound 0.1 µM, first compound 0.3 µM
[10] = second compound 0.1 µM, first compound 0.949 µM
[11] = second compound 0.1 µM, first compound 3 µM
[12] = second compound 0.316 µM, first compound 0.00949 µM
[13] = second compound 0.316 µM, first compound 0.03 µM
[14] = second compound 0.316 µM, first compound 0.0949 µM
[15] = second compound 0.316 µM, first compound 0.3 µM
[16] = second compound 0.316 µM, first compound 0.949 µM
[17] = second compound 0.316 µM, first compound 3 µM
[18] = second compound 1 µM, first compound 0.00949 µM
[19] = second compound 1 µM, first compound 0.03 µM
[20] = second compound 1 µM, first compound 0.0949 µM
[21] = second compound 1 µM, first compound 0.3 µM
[22] = second compound 1 µM, first compound 0.949 µM
[23] = second compound 1 µM, first compound 3 µM
[24] = second compound 3.16 µM, first compound 0.00949 µM
[25] = second compound 3.16 µM, first compound 0.03 µM
[26] = second compound 3.16 µM, first compound 0.0949 µM
[27] = second compound 3.16 µM, first compound 0.3 µM
[28] = second compound 3.16 µM, first compound 0.949 µM
[29] = second compound 3.16 µM, first compound 3 µM
[30] = second compound 10 µM, first compound 0.00949 µM
[31] = second compound 10 µM, first compound 0.03 µM
[32] = second compound 10 µM, first compound 0.0949 µM
[33] = second compound 10 µM, first compound 0.3 µM
[34] = second compound 10 µM, first compound 0.949 µM
[35] = second compound 10 µM, first compound 3 µM
[36] = second compound 0.1 µM, first compound 0.00316 µM
[37] = second compound 0.1 µM, first compound 0.01 µM
[38] = second compound 0.1 µM, first compound 0.0316 µM
[39] = second compound 0.1 µM, first compound 0.1 µM
[40] = second compound 0.316 µM, first compound 0.00316 µM
[41] = second compound 0.316 µM, first compound 0.01 µM
[42] = second compound 0.316 µM, first compound 0.0316 µM
[43] = second compound 0.316 µM, first compound 0.1 µM
[44] = second compound 1 µM, first compound 0.00316 µM
[45] = second compound 1 µM, first compound 0.01 µM
[46] = second compound 1 µM, first compound 0.0316 µM
[47] = second compound 1 µM, first compound 0.1 µM
[48] = second compound 3.16 µM, first compound 0.00316 µM
[49] = second compound 3.16 µM, first compound 0.01 µM
[50] = second compound 3.16 µM, first compound 0.0316 µM
[51] = second compound 3.16 µM, first compound 0.1 µM
[52] = second compound 10 µM, first compound 0.00316 µM
[53] = second compound 10 µM, first compound 0.01 µM
[54] = second compound 10 µM, first compound 0.0316 µM
[55] = second compound 10 µM, first compound 0.1 µM
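Note: spheroids exposed to agents for seven days.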
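Throughout, for viability, T/C: percent of DMSO vehicle control luminescence viability.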

Compound: COc1cc(C2c3cc4c(cc3C(OC3OC5COC(C)OC5C(O)C3O)C3COC(=O)C23)OCO4)cc(OC)c1O (stereo not given) + NC1CCC(NC2CC2c2ccccc2)CC1
pIC50 [1]: 7.15
pIC50 [2]: 7.12
pIC50 [3]: 7.22
pIC50 [4]: 7.10
pIC50 [5]: 7.14
viability, T/C [6]: 106%
viability, T/C [7]: 92.6%
viability, T/C [8]: 35.4%
viability, T/C [9]: 15.4%
viability, T/C [10]: 9.48%
viability, T/C [11]: 7.12%
viability, T/C [12]: 102%
viability, T/C [13]: 88.5%
viability, T/C [14]: 40.6%
viability, T/C [15]: 15.8%
viability, T/C [16]: 10.4%
viability, T/C [17]: 6.65%
viability, T/C [18]: 93.3%
viability, T/C [19]: 77.7%
viability, T/C [20]: 30.6%
viability, T/C [21]: 16.2%
viability, T/C [22]: 8.2%
viability, T/C [23]: 6.77%
viability, T/C [24]: 96.6%
viability, T/C [25]: 91.3%
viability, T/C [26]: 41.2%
viability, T/C [27]: 17.7%
viability, T/C [28]: 9.09%
viability, T/C [29]: 7.34%
viability, T/C [30]: 99.4%
viability, T/C [31]: 94.4%
viability, T/C [32]: 35.6%
viability, T/C [33]: 18%
viability, T/C [34]: 7.96%
viability, T/C [35]: 6.31%

Compound: O=C(C=Cc1cccc(S(=O)(=O)Nc2ccccc2)c1)NO + NC1CC1c1ccc(-c2cccc(O)c2)cc1
pIC50 [1]: 6.34
pIC50 [2]: 6.36
pIC50 [3]: 6.35
pIC50 [4]: 6.46
pIC50 [5]: 6.45
viability, T/C [6]: 103%
viability, T/C [7]: 113%
viability, T/C [8]: 82.4%
viability, T/C [9]: 62.8%
viability, T/C [10]: 30.1%
viability, T/C [11]: 0.42%
viability, T/C [12]: 94.1%
viability, T/C [13]: 102%
viability, T/C [14]: 91.1%
viability, T/C [15]: 61.8%
viability, T/C [16]: 23.8%
viability, T/C [17]: 0.53%
viability, T/C [18]: 97.7%
viability, T/C [19]: 107%
viability, T/C [20]: 87.8%
viability, T/C [21]: 65.8%
viability, T/C [22]: 22.1%
viability, T/C [23]: 1.1%
viability, T/C [24]: 112%
viability, T/C [25]: 101%
viability, T/C [26]: 89.1%
viability, T/C [27]: 55.5%
viability, T/C [28]: 17.1%
viability, T/C [29]: 0.23%
viability, T/C [30]: 112%
viability, T/C [31]: 112%
viability, T/C [32]: 83.7%
viability, T/C [33]: 61%
viability, T/C [34]: 14.7%
viability, T/C [35]: 0.31%

Compound: CC1COCCN1c1cc(-c2ccnn2C)c2ccnc(-c3ccn[nH]3)c2n1 (stereo not given) + NC1CC1c1ccc(-c2cccc(O)c2)cc1
pIC50 [1]: > 8.50
pIC50 [2]: > 8.50
pIC50 [3]: > 8.50
pIC50 [4]: > 8.50
pIC50 [5]: > 8.50
viability, T/C [36]: 15.7%
viability, T/C [37]: 16.1%
viability, T/C [38]: 17.3%
viability, T/C [39]: 25.2%
viability, T/C (second compound 0.1 µM, first compound 0.316 µM): 29.5%
viability, T/C (second compound 0.1 µM, first compound 1 µM): 10.9%
viability, T/C [40]: 23.3%
viability, T/C [41]: 16.2%
viability, T/C [42]: 17.9%
viability, T/C [43]: 26.1%
viability, T/C (second compound 0.316 µM, first compound 0.316 µM): 28.5%
viability, T/C (second compound 0.316 µM, first compound 1 µM): 10.6%
viability, T/C [44]: 22.9%
viability, T/C [45]: 19.6%
viability, T/C [46]: 18.9%
viability, T/C [47]: 25.4%
viability, T/C (second compound 1 µM, first compound 0.316 µM): 26.6%
viability, T/C (second compound 1 µM, first compound 1 µM): 10.6%
viability, T/C [48]: 22.8%
viability, T/C [49]: 19.7%
viability, T/C [50]: 21.1%
viability, T/C [51]: 24.9%
viability, T/C (second compound 3.16 µM, first compound 0.316 µM): 26.1%
viability, T/C (second compound 3.16 µM, first compound 1 µM): 9.32%
viability, T/C [52]: 26.7%
viability, T/C [53]: 22.6%
viability, T/C [54]: 22.5%
viability, T/C [55]: 26.9%
viability, T/C (second compound 10 µM, first compound 0.316 µM): 22.4%
viability, T/C (second compound 10 µM, first compound 1 µM): 9.48%

Compound: CCN(c1cc(-c2ccc(CN3CCOCC3)cc2)cc(C(=O)NCc2c(C)cc(C)[nH]c2=O)c1C)C1CCOCC1 + NC1CCC(NC2CC2c2ccccc2)CC1
pIC50 [1]: < 5.52
pIC50 [2]: 5.59
pIC50 [3]: 5.73
pIC50 [4]: 5.76
pIC50 [5]: 5.83
viability, T/C [6]: 105%
viability, T/C [7]: 105%
viability, T/C [8]: 94.4%
viability, T/C [9]: 83.3%
viability, T/C [10]: 64.6%
viability, T/C [11]: 51%
viability, T/C [12]: 103%
viability, T/C [13]: 99.1%
viability, T/C [14]: 95.8%
viability, T/C [15]: 78.2%
viability, T/C [16]: 71%
viability, T/C [17]: 46.3%
viability, T/C [18]: 103%
viability, T/C [19]: 99.8%
viability, T/C [20]: 93.7%
viability, T/C [21]: 79%
viability, T/C [22]: 66%
viability, T/C [23]: 39.5%
viability, T/C [24]: 96.8%
viability, T/C [25]: 103%
viability, T/C [26]: 96.3%
viability, T/C [27]: 82.8%
viability, T/C [28]: 66.6%
viability, T/C [29]: 35.7%
viability, T/C [30]: 103%
viability, T/C [31]: 101%
viability, T/C [32]: 94.6%
viability, T/C [33]: 83.8%
viability, T/C [34]: 59.6%
viability, T/C [35]: 34.8%

Compound: CC(C)CC(NC(=O)C(Cc1ccccc1)NC(=O)c1cnccn1)B(O)O (stereo not given) + NC1CC1c1ccc(-c2cccc(O)c2)cc1
pIC50 [1]: 9.27
pIC50 [2]: 9.30
pIC50 [3]: 9.29
pIC50 [4]: 9.34
pIC50 [5]: 9.47
viability, T/C (second compound 0.1 µM, first compound 0.000316 µM): 92.2%
viability, T/C (second compound 0.1 µM, first compound 0.001 µM): 0.66%
viability, T/C [36]: 0.11%
viability, T/C [37]: 0.08%
viability, T/C [38]: 0.09%
viability, T/C [39]: 0.26%
viability, T/C (second compound 0.316 µM, first compound 0.000316 µM): 83.8%
viability, T/C (second compound 0.316 µM, first compound 0.001 µM): 0.44%
viability, T/C [40]: 0.17%
viability, T/C [41]: 0.18%
viability, T/C [42]: 0.1%
viability, T/C [43]: 0.3%
viability, T/C (second compound 1 µM, first compound 0.000316 µM): 86.6%
viability, T/C (second compound 1 µM, first compound 0.001 µM): 0.35%
viability, T/C [44]: 0.24%
viability, T/C [45]: 0.04%
viability, T/C [46]: 0.06%
viability, T/C [47]: 0.28%
viability, T/C (second compound 3.16 µM, first compound 0.000316 µM): 74.4%
viability, T/C (second compound 3.16 µM, first compound 0.001 µM): 0.52%
viability, T/C [48]: 0.15%
viability, T/C [49]: 0.08%
viability, T/C [50]: 0.07%
viability, T/C [51]: 0.2%
viability, T/C (second compound 10 µM, first compound 0.000316 µM): 52.8%
viability, T/C (second compound 10 µM, first compound 0.001 µM): 0.4%
viability, T/C [52]: 0.22%
viability, T/C [53]: 2.1%
viability, T/C [54]: 0.17%
viability, T/C [55]: 1.31%

pIC50 (curve of compound): < 7.00
Compound: Cn1ncnc1C1c2n[nH]c(=O)c3cc(F)cc(c23)NC1c1ccc(F)cc1 (stereo not given)
viability, T/C (compound 0.000316 µM): 102% and 101%
viability, T/C (compound 0.001 µM): 97.6% and 112%
viability, T/C (compound 0.00316 µM): 95.6% and 91.6%
viability, T/C (compound 0.01 µM): 96.3% and 103%
viability, T/C (compound 0.0316 µM): 91.7% and 89.2%
viability, T/C (compound 0.1 µM): 86.4% and 98%

pIC50 (curve of compound): < 5.52 and 6.21
Compound: O=C(C=Cc1cccc(S(=O)(=O)Nc2ccccc2)c1)NO
viability, T/C (compound 0.00949 µM): 114%
viability, T/C (compound 0.03 µM): 108% and 119%
viability, T/C (compound 0.0949 µM): 91.1% and 104%
viability, T/C (compound 0.3 µM): 48.3% and 70.4%
viability, T/C (compound 0.949 µM): 10.4% and 38.4%

pIC50 (curve of compound): > 8.50
Compound: CC1COCCN1c1cc(-c2ccnn2C)c2ccnc(-c3ccn[nH]3)c2n1 (stereo not given)
viability, T/C (compound 0.00316 µM): 10.8% and 14.6%
viability, T/C (compound 0.01 µM): 10.8% and 12.3%
viability, T/C (compound 0.0316 µM): 11.1% and 13%
viability, T/C (compound 0.1 µM): 18.1% and 21.3%
viability, T/C (compound 0.316 µM): 21.6% and 24.3%
viability, T/C (compound 1 µM): 12.5% and 17.1%
